What was measured:
Assay type in all cases: cell-based
[1] = target: T1, rCX3CR1 (Rattus norvegicus, UniProt P35411); assay: Ga16 assay, CX3CR1 agonism, Ca2+ sensitive photo-protein readout (FLIPRTETRA); conditions: rat CX3CR1 cell line
T1 construct: expressed in transfected cells; stably expresses a Ca2+ sensitive photo-protein
T1 sequence (P35411 1-354): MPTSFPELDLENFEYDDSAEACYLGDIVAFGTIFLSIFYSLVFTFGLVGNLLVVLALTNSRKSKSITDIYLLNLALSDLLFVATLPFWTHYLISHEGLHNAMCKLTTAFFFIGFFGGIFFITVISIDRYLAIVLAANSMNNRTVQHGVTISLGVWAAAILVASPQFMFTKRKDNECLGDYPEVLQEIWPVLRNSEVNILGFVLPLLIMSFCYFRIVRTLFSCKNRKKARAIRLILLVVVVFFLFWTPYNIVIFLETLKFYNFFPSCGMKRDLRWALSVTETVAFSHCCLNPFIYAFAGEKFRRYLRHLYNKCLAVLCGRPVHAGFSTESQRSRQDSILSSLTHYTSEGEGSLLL
Protocol: (§1) Compounds (as well as stereoisomer(s) thereof and/or salt(s) thereof) were tested for CX3CR1 agonism in a cell based assay with fluorescent readout in Agonist Mode in dose response in quadruplicate with intra-plate modality).
(§2) Buffers and reagents. PBS (D-PBS without calcium and magnesium; EuroClone); Trypsin (Trypsin 0.05%, EDTA 0.02% in PBS; EuroClone); DMSO (Sigma); Standard tyrode buffer: in-house solution (130 mM NaCl, 5 mM KCl, 2 mM CaCl2), 1 mM MgCl2, 5 mM NaHCO3, 20 mM HEPES in water at pH 7.4; sterile filtered); Coelenterazine, native (Biosynth); stock 10 mM; Agonist: Recombinant Human Fractalkine (CX3CL1) (PeproTech); stock: 10 μM in standard tyrode buffer+BSA 0.1%; stored at −20° C.
(§3) Cell line. Human (hCX3CR1), mouse (mCX3CR1), and rat (rCX3CR1) were used for the assay.
(§4) Assay protocol. Experiments ere performed in 384 MTP format. Cells were seeded at 7,500 cells/well in 25 μl/well complete growth medium without selection antibiotics in 384-well plates. Twenty-four hours later, cells ere assayed for the response to various compounds using the Ca^2+ sensitive photo-protein stably expressed in the cells as readout.
(§5) The experiment was performed in a 384-well format according to the following procedure: • 24h after seeding, pre-incubate the cells at room temperature for 1 hour. • Then remove the culture medium. • Load cells with 20 μL/well of standard tyrode buffer+10 μM ceolenterazine. • Incubate cell plates for 3 hours at RT. • Inject 10 μL/w of 3× concentrated test compounds and controls in assay buffer at the FLIPRTETRA and monitor the kinetic response over a period of 90 seconds.
(§6) Data from FLIPRTETRA measurements were analyzed with the Genedata Screener© software. The following examples are meant to illustrate, but in no way to limit, the claimed invention.

[2] = target: T2, mCX3CR1 (Mus musculus, UniProt Q9Z0D9); assay: as above; conditions: mouse CX3CR1 cell line
T2 construct: expressed in transfected cells; stably expresses a Ca2+ sensitive photo-protein
T2 sequence (Q9Z0D9 1-354): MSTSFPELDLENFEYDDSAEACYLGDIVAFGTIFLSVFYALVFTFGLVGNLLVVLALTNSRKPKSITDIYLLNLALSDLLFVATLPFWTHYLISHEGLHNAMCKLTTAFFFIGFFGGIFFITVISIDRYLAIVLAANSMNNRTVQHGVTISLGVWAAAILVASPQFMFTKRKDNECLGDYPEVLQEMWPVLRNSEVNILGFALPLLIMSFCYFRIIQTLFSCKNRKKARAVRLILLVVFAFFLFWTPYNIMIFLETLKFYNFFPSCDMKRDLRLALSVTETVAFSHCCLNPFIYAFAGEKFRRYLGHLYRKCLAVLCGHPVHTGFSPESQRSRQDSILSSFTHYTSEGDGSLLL
Protocol: as §1, §2, §3, §4, §5, §6

[3] = target: T3, hCX3CR1 (Homo sapiens, UniProt P49238); assay: as above; parameters: expressed in transfected cells; stably expresses a Ca2+ sensitive photo-protein; conditions: human CX3CR1 cell line
T3 sequence (P49238 1-355): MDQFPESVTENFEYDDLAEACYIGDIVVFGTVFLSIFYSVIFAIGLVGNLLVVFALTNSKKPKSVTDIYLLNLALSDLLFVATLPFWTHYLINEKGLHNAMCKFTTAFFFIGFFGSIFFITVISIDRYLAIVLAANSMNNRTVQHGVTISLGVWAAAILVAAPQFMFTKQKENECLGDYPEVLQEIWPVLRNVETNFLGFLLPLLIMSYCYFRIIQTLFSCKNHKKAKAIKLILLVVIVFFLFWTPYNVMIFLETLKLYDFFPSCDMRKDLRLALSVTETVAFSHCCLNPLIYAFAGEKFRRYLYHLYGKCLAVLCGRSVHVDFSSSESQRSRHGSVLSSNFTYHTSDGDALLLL
Protocol: as §1, §2, §3, §4, §5, §6

[4] = target: T3, hCX3CR1; assay: Suchi5 assay (HEK/NatClytin/CNG/Suchi5 transiently transfected hCX3CR1, Fluo-8 Ca2+ readout); parameters: expressed in transfected cells; stably expresses a Ca2+ sensitive photo-protein; conditions: Suchi5 assay, HEK/NatClytin/CNG/Suchi5 transfected with hCX3CR1; read-out: hCX3CR1 agonism EC50
Protocol: Buffers and reagents. PBS (D-PBS without calcium and magnesium; EuroClone); Trypsin (Trypsin 0.05%, EDTA 0.02% in PBS; EuroClone); Opti-MEM medium (Thermo Fisher); DMSO (Sigma); Standard tyrode buffer: in-house solution (130 mM NaCl, 5 mM KCl, 2 mM CaCl2), 1 mM MgCl2, 5 mM NaHCO3, 20 mM HEPES in water at pH 7.4; sterile filtered); Screen Quest™ Fluo-8 No Wash Calcium Assay Kit (AAt Bioquest®); Lipofectamine® 2000 Reagent (Thermo Fisher); Agonist: Recombinant Human Fractalkine (CX3CL1) (PeproTech); stock: 10 μM in standard Tyrode buffer/BSA 01%; stored at −20° C.
Cell line. The final cell line for CX3CR1-Suchi5 assay is HEK/NatClytin/CNG/Suchi5 transiently transfected hCX3CR1 cDNA. In this cell line native Gαi signaling is switched to Gαq pathway thanks to the overexpression of a Gαiq chimeric G protein (called Suchi5) to direct Gαi activation towards Ca^2+ release for measurement.
Assay protocol. Experiments are performed in 384 MTP format. Transiently transfected cells are seeded at 20,000 cells/well in 25 μl/well Opti-MEM medium without selection antibiotics in 384-well plates. 4-5-hours later 25 μL/well of complete medium with 20% of FBS are added to the cells. Twenty-four hours later, cells are assayed for the response to various compounds using a fluorescent Ca^2+ sensitive dye (FLUO8-No Wash Dye) as readout.
The experiment is performed in a 384-well format according to the following procedure: • 24h after seeding, remove the culture medium. • Load cells with 20 μL/well of 0.5X FLUO-8 No Wash Dye diluted in assay buffer. • Incubate cell plates for 1 hour at RT. • Inject 10 μL/w of 3× concentrated test compounds and controls in assay buffer at the FLIPRTETRA and monitor the kinetic response over a period of 90 seconds.
Data from FLIPRTETRA measurements are analyzed with the Genedata Screener© software.

EC50 [1] [µM] | EC50 [2] [µM] | EC50 [3] [µM] | EC50 [4] [µM] | Compound
33.7 | 48.6 | 8.6 | 11.8 | COC1(C)CCN(CC2(CNC(=O)c3cc4c(s3)CCCCCC4)CCCC2)CC1 [Example 53, N-[[1-[(4-methoxy-4-methylpiperidin-1-yl)methyl]cyclopentyl]methyl]-4,5,6,7,8,9-hexahydrocycloocta[b]thiophene-2-carboxamide]
12.1 | 8.1 | 13.7 | 7.1 | COC1CCCN(CC2(CNC(=O)c3cc4c(s3)CCCCCC4)CCC2)C1 (centres unmarked) [Example 55, N-({1-[(3-Methoxypiperidin-1-yl)methyl]cyclobutyl}methyl)-4H,5H,6H,7H,8H,9H-cycloocta[b]thiophene-2-carboxamide]
13.7 | 18.2 | 18.5 | 9.9 | COC1(C)CCN(CC2(CNC(=O)c3cc4c(s3)CCCCCC4)CCC2)CC1 [Example 48, N-[[1-[(4-methoxy-4-methylpiperidin-1-yl)methyl]cyclobutyl]methyl]-4,5,6,7,8,9-hexahydrocycloocta[b]thiophene-2-carboxamide]
6.6 | 8.7 | 10 | 8.9 | COC1CCN(CC2(CNC(=O)c3cc4c(s3)CCCCCC4)CCC2)CC1 [Example 49, N-[[1-[(4-methoxypiperidin-1-yl)methyl]cyclobutyl]methyl]-4,5,6,7,8,9-hexahydrocycloocta[b]thiophene-2-carboxamide]
11.4 | 20.4 | 16 | 7.2 | O=C(NCC1(CN2CCC(O)C2)CCC1)c1cc2c(s1)CCCCCC2 (centres unmarked) [Example 66, N-[[1-[(3-hydroxypyrrolidin-1-yl)methyl]cyclobutyl]methyl]-4,5,6,7,8,9-hexahydrocycloocta[b]thiophene-2-carboxamide]
34.8 | 15.4 | 15.7 | 18.4 | CC(C)OC1CCN(CC2(CNC(=O)c3cc4c(s3)CCCCCC4)CCC2)CC1 [Example 51, N-[[1-[(4-propan-2-yloxypiperidin-1-yl)methyl]cyclobutyl]methyl]-4,5,6,7,8,9-hexahydrocycloocta[b]thiophene-2-carboxamide]
16.8 | 19.1 | 21.9 | 5 | CC1(C)CN(CC2(CNC(=O)c3cc4c(s3)CCCCCC4)CCC2)CCC1O (centres unmarked) [Example 58, N-[[1-[(4-hydroxy-3,3-dimethylpiperidin-1-yl)methyl]cyclobutyl]methyl]-4,5,6,7,8,9-hexahydrocycloocta[b]thiophene-2-carboxamide]
7.4 | 9.4 | 8.6 | 2.5 | O=C(NCC1(CN2CCC(O)CC2)CCC1)c1cc2c(s1)CCCCCC2 [Example 41, N-[[1-[(4-hydroxypiperidin-1-yl)methyl]cyclobutyl]methyl]-4,5,6,7,8,9-hexahydrocycloocta[b]thiophene-2-carboxamide]

Second part, the compound before the results:

Compound | EC50 [1] [µM] | EC50 [2] [µM] | EC50 [3] [µM] | EC50 [4] [µM]
O=C(NCC1(CN2CCC(O)C2)CCCC1)c1cc2c(s1)CCCCCC2 (single isomer, unassigned) [Example 63, N-[[1-[(3-hydroxypyrrolidin-1-yl)methyl]cyclopentyl]methyl]-4,5,6,7,8,9-hexahydrocycloocta[b]thiophene-2-carboxamide] | 9.7 | 13.5 | 9.8 | 9.6
CC1CCCC1(CNC(=O)c1cc2c(s1)CCCCCC2)CN(C)C (single isomer, unassigned) [Example 60, N-[[1-[(dimethylamino)methyl]-2-methylcyclopentyl]methyl]-4,5,6,7,8,9-hexahydrocycloocta[b]thiophene-2-carboxamide] | 18.9 | 89.8 | 16.8 | 10.3
O=C(NCC1(CN2CCC(O)CC2)CCCOC1)c1cc2c(s1)CCCCCC2 (centres unmarked) [Example 45, N-[[3-[(4-hydroxypiperidin-1-yl)methyl]oxan-3-yl]methyl]-4,5,6,7,8,9-hexahydrocycloocta[b]thiophene-2-carboxamide] | 18.7 | 41.6 | 14.3 | 14.1
O=C(NCC1(CN2CCCC(O)C2)CCC1)c1cc2c(s1)CCCCCC2 (centres unmarked) [Example 65, N-[[1-[(3-hydroxypiperidin-1-yl)methyl]cyclobutyl]methyl]-4,5,6,7,8,9-hexahydrocycloocta[b]thiophene-2-carboxamide] | 7.4 | 9.2 | 6 | 8.2
O=C(NCC1(CN2CCC(O)C2)CCCC1)c1cc2c(s1)CCCCCC2 (single isomer, unassigned) [Example 64, N-[[1-[(3-hydroxypyrrolidin-1-yl)methyl]cyclopentyl]methyl]-4,5,6,7,8,9-hexahydrocycloocta[b]thiophene-2-carboxamide] | 9.1 | 13.7 | 10.2 | 8.7
CC1CCCC1(CNC(=O)c1cc2c(s1)CCCCCC2)CN(C)C (single isomer, unassigned) [Example 61, N-[[1-[(dimethylamino)methyl]-2-methylcyclopentyl]methyl]-4,5,6,7,8,9-hexahydrocycloocta[b]thiophene-2-carboxamide] | 15.2 | 33.8 | 13.4 | 6.8

Reference: US12258337B2, “Bicyclic CX3CR1 receptor agonists” (Board of Regents, The University of Texas System, priority 2019, dated 2025)
